Results from patent US6399629B1, “Efflux pump inhibitors” (priority 1998, dated 2002).

Tested on: Pseudomonas aeruginosa PAM1001
Experiment: checkerboard assay (broth microdilution): levofloxacin MIC in presence of efflux pump inhibitor
Format: cell-based
Outline: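 Reduction of levofloxacin MIC by an efflux pump inhibitor measured against Pseudomonas aeruginosa PAM1001. Each microdilution well held a unique combination of levofloxacin and inhibitor (max 40 μg/mL) in MHB, inoculum 5×10^5 CFU/mL. Readout after 20 h, 35° C: OD650 plus visual inspection.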

Molecule | Levofloxacin MIC Against P. aerugiuosa PAM1001 in Presence of Efflux Pump Inhibitor (EPI), Minimum Inhibitory Concentration (EPI Conc. 0 μg/mL) | Levofloxacin MIC Against P. aerugiuosa PAM1001 in Presence of Efflux Pump Inhibitor (EPI), Minimum Inhibitory Concentration (EPI Conc. 0.625 μg/mL) | Levofloxacin MIC Against P. aerugiuosa PAM1001 in Presence of Efflux Pump Inhibitor (EPI), Minimum Inhibitory Concentration (EPI Conc. 1.25 μg/mL) | Levofloxacin MIC Against P. aerugiuosa PAM1001 in Presence of Efflux Pump Inhibitor (EPI), Minimum Inhibitory Concentration (EPI Conc. 2.5 μg/mL) | Levofloxacin MIC Against P. aerugiuosa PAM1001 in Presence of Efflux Pump Inhibitor (EPI), Minimum Inhibitory Concentration (EPI Conc. 5 μg/ mL) | Levofloxacin MIC Against P. aerugiuosa PAM1001 in Presence of Efflux Pump Inhibitor (EPI), Minimum Inhibitory Concentration (EPI Conc. 10 μg/mL) | Levofloxacin MIC Against P. aerugiuosa PAM1001 in Presence of Efflux Pump Inhibitor (EPI), Minimum Inhibitory Concentration (EPI Conc. 20 μg/mL) | Levofloxacin MIC Against P. aerugiuosa PAM1001 in Presence of Efflux Pump Inhibitor (EPI), Minimum Inhibitory Concentration (EPI Conc. 40 μg/mL) | MIC (Pseudomonas aeruginosa, PAM1001, read-out: MIC of levofloxacin against P. aeruginosa PAM1001)
CC(C)(C)c1ccc2ncc(NC(=O)[C@@H]3C[C@@H](OCCN)CN3)cc2c1 [Compound M92, (2S,4R)-4-(2-Aminoethyloxy)-N-(6-(1,1-dimethyl)ethyl-3-quinolyl)-2-pyrrolidinecarboxamide] | 4 µg/mL | 4 µg/mL | 4 µg/mL | 4 µg/mL | 4 µg/mL | 2 µg/mL | 0.06 µg/mL | 0.008 µg/mL | 
N=C(N)N[C@H]1CN[C@H](C(=O)N[C@H](CCc2ccccc2)C(=O)Nc2cnc3ccccc3c2)C1 [Compound M95, (2S,4R)-4-(Guanadinyl)-N-[(1R)-3-phenyl-1-(3-quinolylcarbamoyl)propyl]-2-pyrrolidinecarboxamide] | 4 µg/mL | 4 µg/mL | 4 µg/mL | 4 µg/mL | 4 µg/mL | 4 µg/mL | 0.03 µg/mL | 0.015 µg/mL | 
CC(C)(C)c1ccc2ncc(NC(=O)[C@H]3C[C@H](CN)CN3)cc2c1 [Compound M97, (2R,4R)-4-(Aminomethyl)-N-[6-(1,1-dimethyl)ethyl-3-quiolyl]-2-pyrrolidinecarboxamide] | 4 µg/mL | 4 µg/mL | 4 µg/mL | 2 µg/mL | 0.5 µg/mL | 0.125 µg/mL | 0.015 µg/mL | 0.008 µg/mL | 
NC[C@@H]1CN[C@@H](C(=O)N[C@H](CCc2ccccc2)CNC(=O)c2cnc3ccccc3c2)C1 [Compound M103, (2R,4R)-4-(Aminomethyl)-N-[(1R)-3-phenyl-1-[(3-quinolylcarboxamido)methyl]propyl]-2-pyrrolidinecarboxamide] | 4 µg/mL | 4 µg/mL | 4 µg/mL | 4 µg/mL | 2 µg/mL | 1 µg/mL | 0.03 µg/mL | 0.015 µg/mL | 
C[C@H]1COc2c(N3CCN(C)CC3)c(F)cc3c(=O)c(C(=O)O)cn1c23 [levofloxacin, reference compound] |  |  |  |  |  |  |  |  | 4 µg/mL
(2R,4R)-4-(Aminomethyl)-N-(2-phenylethyl)-N-(3-quinolylcarbamoyl)ethyl]-2-pyrrolidinecarboxamide [Compound M45] | 4 µg/mL | 4 µg/mL | 4 µg/mL | 1 µg/mL | 0.50 µg/mL | 0.03 µg/mL | 0.015 µg/mL | 0.015 µg/mL | 
(2R,4S)-4-(2-Aminoacetamideo)-N-(2-methylpropyl)-N-(7-ethyl-3-quinolylcarbamoyl)ethyl]-2-pyrrolidinecarboxamide [Compound M44] | 4 µg/mL | 4 µg/mL | 4 µg/mL | 4 µg/mL | 1 µg/mL | 0.06 µg/mL | 0.015 µg/mL | 0.03 µg/mL | 
(2R,4S)-4-[(2R)-2-Aminopropionamido]-N-(2-phenylethyl)-N-(3-quinolylcarbamoyl)ethyl]-2-pyrrolidinecarboxamide [Compound M42] | 4 µg/mL | 4 µg/mL | 4 µg/mL | 4 µg/mL | 4 µg/mL | 0.50 µg/mL | 0.06 µg/mL | 0.06 µg/mL | 
(2S,4R)-4-(2-Aminoacetamideo)-N-(2-phenylethyl)-N-(3-quinolylcarbamoyl)ethyl]-2-pyrrolidinecarboxamide [Compound M43] | 4 µg/mL | 4 µg/mL | 4 µg/mL | 2 µg/mL | 0.25 µg/mL | 0.125 µg/mL | 0.125 µg/mL | 0.06 µg/mL | 
